# Data reported in the METLIN SMRT retention time set (Domingo-Almenara et al. 2019).
# Assay: gradient 5% acetonitrile 3 min, to 50% in 2 min, to 85% in 15 min, held 3 min, 100 µL/min
# Conditions: column: Zorbax Extend-C18 2.1 x 50 mm; eluents: water / acetonitrile, 0.1% formic acid
# Summary of the method: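 Retention times of pure standards were taken from adduct peaks that were selected by computer and manually inspected. Over 3 months, mixtures of ~100 molecules were run by HPLC–quadrupole time-of-flight mass spectrometry in positive and negative ionization mode. The Zorbax Extend-C18 column (2.1 × 50 mm, 1.8 μm) ran at 100 μL/min in water and acetonitrile, each containing 0.1% formic acid, with 40 μL dead volume and 900 μL dwell volume.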
row,SMILES,RP-LC retention time [s]
1,N#Cc1ccc(C(=O)Nc2ccc(-c3nnc4n3CCCC4)cc2)cc1,643
2,COc1cc(-c2nc(Cn3c(C)nc4ccccc4c3=O)no2)cc(OC)c1OC,801
3,COc1ccc(-c2nc(C3CC(=O)N(c4ccc(Cl)cc4)C3)no2)cc1 (centres undefined),1060
4,O=C(Nc1ccccc1)N1CCC(n2cnc3ccc(Cl)cc3c2=O)CC1,782
5,COc1ccc(C2C(=O)N(C3CCC(C)CC3)CC(=O)N2Cc2cccs2)cc1OC (centres undefined),961
6,Cc1ccc(C)c(N2CCN(c3ccnc(SCC(=O)Nc4cc(F)ccc4C)n3)CC2)c1,1040
7,CCc1noc(-c2cc(=O)n(CC(=O)Nc3ccccc3OC)c3ccccc23)n1,962
8,CN(c1ncccc1CNc1nc(Nc2ccc3c(c2)CC(=O)N3)ncc1C(F)(F)F)S(C)(=O)=O,678
9,Cc1ccc(Nc2cc(C)nc(N3CCN(C(=O)c4ccco4)CC3)n2)cc1,590
10,O=S(=O)(Nc1cccc(Cl)c1)c1ccc(-c2nnc(C3CCC3)o2)o1,967
11,O=C(CCCc1nc2cccnc2n1Cc1ccccc1)N1CCN(c2ncccn2)CC1,563
12,OC(c1ccncc1)c1cccc(Cl)c1F (centres undefined),586
13,Cc1cc(C(=O)Nc2ccc(Cl)cc2)nc2ccnn12,1010
14,N#Cc1ccc(N2CCN(C(=O)COc3ccc4[nH]cc(CCN)c4c3)CC2)cc1,684
15,CCOC(=O)c1c(NC(=O)c2ccc(S(=O)(=O)N(C)C)cc2)sc(C)c1C,1170
16,Cc1ccc2c(Nc3cc(F)ccc3C)c(-c3nc(C)no3)cnc2n1,784
17,CCOc1ccccc1NC(=O)C1CCCN(c2cnc3nccnc3c2)C1 (centres undefined),664
18,COC(=O)C1=CN(c2ccc(F)cc2)c2cc(Br)ccc2S1(=O)=O,963
19,Cc1nnc2cc(N3CCN(C(=O)Nc4cccc(Cl)c4)CC3)cnn12,596
20,O=S(=O)(c1ccc(-c2nnc(C3CCC3)o2)o1)N1CCN(c2ccccc2)CC1,1090
21,N#CC1(C(=O)NCc2nc(-c3ccccc3)no2)CC1,729
22,Cc1cccc(NC(=O)C2CCN(S(C)(=O)=O)c3ccccc3O2)c1 (centres undefined),895
23,COc1ccc(C(=O)N2CCC3(C2)C(=O)N(C)c2ccccc23)cc1OC (centres undefined),714
24,COc1ccccc1N1CCN(c2cc(SCC(=O)NCc3ccc(Cl)cc3)ncn2)CC1,1110
25,CCOC(=O)CCC(=O)Nc1ccc(S(=O)(=O)N2CCc3ccccc32)cc1,834
26,COC(=O)c1c(C)[nH]c(C(=O)N2CCCC(C(=O)NCCN(C)C3CCCCC3)C2)c1C (centres undefined),626
27,O=C(NCc1ccco1)c1ccc(Cn2nc(N3CCN(c4ccc(F)cc4)CC3)ccc2=O)o1,820

row,SMILES,RP-LC retention time [s]
1,COc1ccc(NC(=O)N2CC(N(Cc3ccncc3)CC(C)C)C2)cc1OC,622
2,CCNC(=O)c1sc(Nc2cccc(C)n2)nc1C,657
3,CCc1ccc(CNC(=O)C2CCCN(c3nc4c(s3)c(C)nn4-c3ccc(F)cc3)C2)cc1 (centres undefined),1240
4,Cc1ccc2[nH]cc(CCNC(=O)CSCc3nnc(C(=O)Nc4ccc(F)cc4)s3)c2c1,918
5,CCc1c(C)nc2nc(-c3ccco3)nn2c1N1CCN(c2ccccn2)CC1,616
6,CCCc1noc(-c2ccnc(-n3cnc(C(=O)N4CCCC4)c3)c2)n1,789
7,Fc1ccc(C2Cn3nnc(-c4nc(-c5ccc(OC(F)(F)F)cc5)no4)c3CO2)cc1 (centres undefined),1250
8,CC(C)C(=O)NCc1csc(C2CCN(C(=O)COc3ccccc3)CC2)n1,722
9,CCCN(CC1CCOC1)S(=O)(=O)c1ccc(C)c(Cl)c1 (centres undefined),1050
10,CCN1CCN(c2nccc(-c3cnc4nc(-c5cccnc5)nn4c3C)n2)CC1,574
11,CC(C)C(=O)NCc1cnn(-c2ccc(C(=O)N(C)Cc3ccco3)cc2)c1,696
12,O=C(Cn1c(=O)oc2ccc(C(=O)N3CCCC3)cc21)NCCCc1ccccc1,764
13,O=C(Cn1ccnc1-c1ccnc(N2CCSCC2)c1)N1CCN(c2ccccc2)CC1,697
14,CCOc1ccc(-c2nc(-c3cccc(-c4ccnn4C)c3)no2)cc1,1230
15,COc1ccc(-c2nnc(COc3ccc(NC(=O)c4cccnc4Cl)cc3)o2)cc1,820
16,CCOC(=O)C1=C(CN2CCCCC2)NC(=O)NC1c1ccc(OC(C)C)cc1 (centres undefined),646
17,COCCc1noc(C2CN(S(=O)(=O)c3cccnc3)C2)n1,669
18,Cc1noc(-c2ccc(OC3CN(C(=O)c4ccco4)C3)cc2)n1,789
19,CCc1ccc(S(=O)(=O)N2CCc3c(c(-c4nc(C5CC5)no4)nn3C)C2)cc1,1020
20,COc1cc2c(cc1CC=C(C)C)C(=O)C[C@@H](c1ccc(O)cc1)O2,1190
21,Cc1sc(C)c(S(=O)(=O)N2CCCCCC2)c1-c1cc(C(F)(F)F)on1,1200
22,CCOc1ccc(N2C(=O)Nc3ccccc3C2(O)C(=O)NCCCN2CCCCC2)cc1 (centres undefined),576
23,CN1C(=O)c2cc(C(=O)NCCN3CCCCCC3)nn2CC1(C)C(=O)NCc1ccccc1 (centres undefined),608
24,Cn1cc(C(=O)NCc2ccccc2Cl)c(S(=O)(=O)N2CCSCC2)n1,890
25,CCOc1ccc2nc(C(=O)NC(CC)c3ccc(OC)cc3)cn2n1 (centres undefined),897
26,CCCCCNC(=O)C1CCCN(S(=O)(=O)c2cc(Cl)ccc2OC)C1 (centres undefined),960

# Other lines, results leading:
row,RP-LC retention time [s],SMILES
1,661,CCc1nn2c(CNC(=O)c3ccc(F)c(F)c3)c(-c3ccccc3)nc2s1
2,1230,CCN1C(=O)COc2ccc(-c3noc(-c4ccccc4C)n3)cc21
3,844,O=C(Nc1cccc(F)c1)C1CC(=O)N(CCc2c[nH]c3ccc(Cl)cc23)C1 (centres undefined)
4,622,Cn1cnc(S(=O)(=O)N2CCC(c3noc(-c4ccccn4)n3)C2)c1 (centres undefined)
5,637,Cc1cc(-c2nnc(-c3ccc(F)cc3)o2)c(C)n1CC(=O)NCc1cccnc1
6,918,COc1ccc(NC(=O)Cn2nc3cc(-c4ccccc4)nc(C)n3c2=O)c(OC)c1
7,798,CC1CC(=O)c2cnc(N3CCN(c4ncccn4)CC3)nc2C1 (centres undefined)
8,867,CC(C)N1C(=O)c2cccnc2Sc2cc(NC(=O)Cc3ccc(F)cc3)ccc21
9,656,COc1ccc(NC(=O)c2nc(N3CCCC3)c3c(C)cc(C)nc3n2)cc1
10,649,CCCN1C(=O)c2c(C(=O)NCc3ccc(N(C)C)cc3)ncn2CC1(C)C(=O)NCCC(C)C (centres undefined)
11,704,CCN1CCCn2cc(S(=O)(=O)Nc3cc(OC)ccc3OC)cc2C1=O
12,872,O=C1NC2(CCN(C(=O)Nc3ccc(Cl)cc3)CC2)N=C1c1cccc(F)c1
13,786,COc1ccccc1N1CCN(C(=O)Cn2ccc3ccc(-c4nnc(C)o4)cc32)CC1
14,855,Cc1cc2c3ccccc3ncn2n1
15,1110,CCOc1ccc(-c2noc(CS(=O)(=O)c3cc(C)c(C)cc3C)n2)cc1
16,630,COc1ccc(Cl)cc1NC(=O)CN1CCCC(COCc2ccccc2)C1 (centres undefined)
17,643,Cc1sc2cc(C(=O)NC(C)C)[nH]c2c1CN1CCCCC1
18,1010,Cc1nc(-n2nc(C)c(CC(=O)N3CCCCCC3)c2C)sc1C

row,RP-LC retention time [s],SMILES
1,858,CCS(=O)(=O)c1nc2ccc(NS(=O)(=O)c3ccccc3Cl)cc2s1
2,678,CS(=O)(=O)N(C1CCOCC1)C1CN(C(=O)CCc2c[nH]c3ccccc23)C1
3,853,COc1ccc(CC(=O)N2CCCC2c2nc(-c3ccccc3OC)no2)cc1 (centres undefined)
4,642,Cc1ccc(NC(=O)N2CC(n3ccnc3C(C)C)C2)cc1C
5,1310,CCOc1ccc(-c2csc(Cc3nc(-c4ccc(C)cc4)no3)n2)cc1
6,708,O=C(CN1C(=O)NC2(CCCCC2)C1=O)Nc1ccc2c(c1)OCCO2
7,1140,Cc1c(Cl)cccc1Nc1c(-c2cccc(Cl)c2)nc2cnccn12
8,584,COc1cccc(CCC(=O)N2CCn3cnnc3C2)c1
9,764,COc1cc(NC(=O)COc2cc(C)nc(N3CCN(c4ccccc4)CC3)n2)cc(OC)c1OC
10,892,Cc1cc(-n2c(C)nc3ccccc3c2=O)ccc1NC(=O)CCC1CCCC1
11,748,CCN1c2ccccc2C(=O)NC12CCN(C(=O)Nc1ccccc1F)CC2
12,569,Cc1nccn1CCNC(=O)c1cc(-c2ccccc2)on1
13,607,Cc1oc(-c2[nH]ncc2C(=O)N2CCOCC2)cc1S(=O)(=O)NC1CC1
14,617,CC1CCCCN1CCNC(=O)c1cc(S(=O)(=O)N2CCCC2)ccc1Cl (centres undefined)
15,817,CC(=O)Nc1ccc(NC(=O)c2ccc3noc(-c4ccc(Cl)cc4)c3c2)cc1
16,858,CCS(=O)(=O)N1CCCc2cc(C(=O)Nc3ccc4c(c3)OCCO4)ccc21
17,765,CSc1cccc(NC(=O)Cn2c(N3CCC(C)CC3)nc(C)cc2=O)c1
18,732,Cc1sc(NC(=O)C2CCCO2)nc1-c1ccc2c(c1)NC(=O)CO2 (centres undefined)
